In PubChem BioAssay (NCI):
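At the GI50, growth is halved. At the TGI there is no net growth.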

Tests used:
Experiment in all cases: growth of human tumour cells (NCI), 384-well format
UACC-257 melanoma = test system: UACC-257 melanoma
COLO 205 colon = test system: COLO 205 colon
MDA-MB-468 breast = test system: MDA-MB-468 breast
OVCAR-4 ovarian = test system: OVCAR-4 ovarian
NCI-H460 NSCLC = test system: NCI-H460 NSCLC
DU-145 prostate = test system: DU-145 prostate
MCF7 breast = test system: MCF7 breast
HOP-92 NSCLC = test system: HOP-92 NSCLC
NCI-H522 lung = test system: NCI-H522 lung
OVCAR-5 ovarian = test system: OVCAR-5 ovarian
TK-10 renal = test system: TK-10 renal
SF-539 CNS = test system: SF-539 CNS
UACC-62 melanoma = test system: UACC-62 melanoma
A549 NSCLC = test system: A549 NSCLC
RPMI-8226 leukemia = test system: RPMI-8226 leukemia
HT29 colon = test system: HT29 colon
U251 glioblastoma = test system: U251 glioblastoma
MALME-3M melanoma = test system: MALME-3M melanoma
SK-MEL-5 melanoma = test system: SK-MEL-5 melanoma
CCRF-CEM leukemia = test system: CCRF-CEM leukemia
MDA-MB-231 breast = test system: MDA-MB-231 breast
HCC-2998 colon = test system: HCC-2998 colon
ACHN renal = test system: ACHN renal
NCI-H226 lung = test system: NCI-H226 lung
OVCAR-3 ovarian = test system: OVCAR-3 ovarian
NCI/ADR-RES ovarian = test system: NCI/ADR-RES ovarian
SR leukemia = test system: SR leukemia
RXF 393 renal = test system: RXF 393 renal
SF-268 CNS = test system: SF-268 CNS
SK-MEL-2 melanoma = test system: SK-MEL-2 melanoma
CAKI-1 renal = test system: CAKI-1 renal
PC-3 prostate = test system: PC-3 prostate
786-0 renal = test system: 786-0 renal
M14 melanoma = test system: M14 melanoma
T-47D breast = test system: T-47D breast
UO-31 renal = test system: UO-31 renal
SW-620 colon = test system: SW-620 colon
HL-60(TB) leukemia = test system: HL-60(TB) leukemia
KM12 colon = test system: KM12 colon
MOLT-4 leukemia = test system: MOLT-4 leukemia
OVCAR-8 ovarian = test system: OVCAR-8 ovarian
SK-OV-3 ovarian = test system: SK-OV-3 ovarian
LOX IMVI melanoma = test system: LOX IMVI melanoma
SF-295 CNS = test system: SF-295 CNS
K-562 leukemia = test system: K-562 leukemia
A498 renal = test system: A498 renal
HCT-15 colon = test system: HCT-15 colon
MDA-MB-435 melanoma = test system: MDA-MB-435 melanoma
NCI-H23 lung = test system: NCI-H23 lung
BT-549 breast = test system: BT-549 breast
HOP-62 NSCLC = test system: HOP-62 NSCLC
IGROV1 ovarian = test system: IGROV1 ovarian
HCT-116 colon = test system: HCT-116 colon
SK-MEL-28 melanoma = test system: SK-MEL-28 melanoma
SN12C renal = test system: SN12C renal
NCI-H322M lung = test system: NCI-H322M lung

`CS[C@@]1(C(=O)Nc2ccc3[nH]nc(-c4ccc(OC(C)C)nc4)c3c2)CCN(CC(=O)N2CC=C(c3ccc(-c4ncn(C)n4)cc3)CC2)C1` was tested, and the GI50 (UACC-257 melanoma) was 16.7 nM, the TGI (UACC-257 melanoma) was 97.6 nM and the GI50 (COLO 205 colon) was 20 nM. It also gave a TGI (COLO 205 colon) of 194 nM, a GI50 (MDA-MB-468 breast) of 907 nM and a TGI (MDA-MB-468 breast) of 7.33 µM. For the same molecule, the GI50 (OVCAR-4 ovarian) was 1800 nM, the TGI (OVCAR-4 ovarian) was greater than 100 µM and the GI50 (NCI-H460 NSCLC) was 884 nM. The TGI (NCI-H460 NSCLC) was greater than 100 µM, the GI50 (DU-145 prostate) was 61.6 µM and the TGI (DU-145 prostate) was greater than 100 µM. It also gave a GI50 (MCF7 breast) greater than 100 µM, a TGI (MCF7 breast) greater than 100 µM and a GI50 (HOP-92 NSCLC) of 189 nM. It also gave a TGI (HOP-92 NSCLC) of 631 nM, a GI50 (NCI-H522 lung) of 7.97 µM and a TGI (NCI-H522 lung) greater than 100 µM. It also gave a GI50 (OVCAR-5 ovarian) of 108 nM, a TGI (OVCAR-5 ovarian) greater than 100 µM and a GI50 (TK-10 renal) of 561 nM. For the same molecule, the TGI (TK-10 renal) was greater than 100 µM, the GI50 (SF-539 CNS) was 1360 nM and the TGI (SF-539 CNS) was 47.8 µM. For the same molecule, the GI50 (UACC-62 melanoma) was 11 nM, the TGI (UACC-62 melanoma) was 215 nM and the GI50 (A549 NSCLC) was 302 nM. It also gave a TGI (A549 NSCLC) greater than 100 µM, a GI50 (RPMI-8226 leukemia) of 536 nM and a TGI (RPMI-8226 leukemia) of 2440 nM. For the same molecule, the GI50 (HT29 colon) was 43.1 nM, the TGI (HT29 colon) was greater than 100 µM and the GI50 (U251 glioblastoma) was 1530 nM. The TGI (U251 glioblastoma) was greater than 100 µM, the TGI (MALME-3M melanoma) was 22.1 nM and the GI50 (SK-MEL-5 melanoma) was 58.9 nM. It also gave a TGI (SK-MEL-5 melanoma) of 1730 nM, a GI50 (CCRF-CEM leukemia) of 5.12 µM and a TGI (CCRF-CEM leukemia) greater than 100 µM. It also gave a GI50 (MDA-MB-231 breast) of 373 nM, a TGI (MDA-MB-231 breast) of 34.3 µM and a GI50 (HCC-2998 colon) of 24.2 nM. The TGI (HCC-2998 colon) was 222 nM, the GI50 (ACHN renal) was 2250 nM and the TGI (ACHN renal) was greater than 100 µM. It also gave a GI50 (NCI-H226 lung) of 595 nM, a TGI (NCI-H226 lung) of 21.6 µM and a GI50 (OVCAR-3 ovarian) of 5.37 µM. The TGI (OVCAR-3 ovarian) was greater than 100 µM, the GI50 (NCI/ADR-RES ovarian) was 3.77 µM and the TGI (NCI/ADR-RES ovarian) was greater than 100 µM. It also gave a GI50 (SR leukemia) of 375 nM, a TGI (SR leukemia) of 4 µM and a GI50 (RXF 393 renal) of 354 nM. It also gave a TGI (RXF 393 renal) of 2200 nM, a GI50 (SF-268 CNS) greater than 100 µM and a TGI (SF-268 CNS) greater than 100 µM. The GI50 (SK-MEL-2 melanoma) was 38.6 nM, the TGI (SK-MEL-2 melanoma) was 207 nM and the GI50 (CAKI-1 renal) was 273 nM. It also gave a TGI (CAKI-1 renal) greater than 100 µM, a GI50 (PC-3 prostate) of 18.8 µM and a TGI (PC-3 prostate) greater than 100 µM. For the same molecule, the GI50 ([…]-0 renal) was 1770 nM, the TGI (786-0 renal) was greater than 100 µM and the GI50 (M14 melanoma) was 12.5 nM. The TGI (M14 melanoma) was 109 nM, the GI50 (T-47D breast) was 5.69 µM and the TGI (T-47D breast) was greater than 100 µM. The GI50 (UO-31 renal) was 810 nM, the TGI (UO-31 renal) was greater than 100 µM and the GI50 (SW-620 colon) was 112 nM. It also gave a TGI (SW-620 colon) greater than 100 µM, a GI50 (HL-60(TB) leukemia) of 43.7 nM and a TGI (HL-60(TB) leukemia) of 1350 nM. It also gave a GI50 (KM12 colon) of 297 nM, a TGI (KM12 colon) greater than 100 µM and a GI50 (MOLT-4 leukemia) of 2560 nM. For the same molecule, the TGI (MOLT-4 leukemia) was 8.65 µM, the GI50 (OVCAR-8 ovarian) was 5.37 µM and the TGI (OVCAR-8 ovarian) was greater than 100 µM. For the same molecule, the GI50 (SK-OV-3 ovarian) was 17.2 µM, the TGI (SK-OV-3 ovarian) was greater than 100 µM and the GI50 (LOX IMVI melanoma) was 90.4 nM. For the same molecule, the TGI (LOX IMVI melanoma) was 267 nM, the GI50 (SF-295 CNS) was 12.8 µM and the TGI (SF-295 CNS) was greater than 100 µM. It also gave a GI50 (K-562 leukemia) of 819 nM, a TGI (K-562 leukemia) greater than 100 µM and a GI50 (A498 renal) of 2520 nM. For the same molecule, the TGI (A498 renal) was greater than 100 µM, the GI50 (HCT-15 colon) was 2820 nM and the TGI (HCT-15 colon) was greater than 100 µM. The GI50 (MDA-MB-435 melanoma) was 96.3 nM, the TGI (MDA-MB-435 melanoma) was greater than 100 µM and the GI50 (NCI-H23 lung) was 17.1 nM. For the same molecule, the TGI (NCI-H23 lung) was 136 nM, the GI50 (BT-549 breast) was 2030 nM and the TGI (BT-549 breast) was greater than 100 µM. The GI50 (HOP-62 NSCLC) was 476 nM, the TGI (HOP-62 NSCLC) was greater than 100 µM and the GI50 (IGROV1 ovarian) was 514 nM. It also gave a TGI (IGROV1 ovarian) greater than 100 µM, a GI50 (HCT-116 colon) of 122 nM and a TGI (HCT-116 colon) of 2390 nM. It also gave a TGI (SK-MEL-28 melanoma) of 58.3 nM, a GI50 (SN12C renal) of 3.37 µM and a TGI (SN12C renal) greater than 100 µM. The GI50 (NCI-H322M lung) was 438 nM and the TGI (NCI-H322M lung) was greater than 100 µM.
